What all share (format): in vivo
The test system of one experiment is STZ mice. The experiment is described as follows: Blood glucose in mouse pancreatic islet β-cell injury model (Example 1). Conditions: STZ ICR mice; single administration 0.02 g/kg per day by gavage, two weeks; 1 h after last administration. An excerpt: Effects of a Limonoid Compound, Metformin or a Combination Thereof on Blood Glucose in a Mouse Pancreatic Islet β-Cell Injury Model In this example, a mouse pancreatic islet β-cell injury model was established by modeling ICR mice with streptozotocin (STZ) (referred to the prior art literature: Li Nan et al., Protective effect of pine pollen on kidney damage in diabetic nephropathy mice, Science and Technology Review, 2014, 32 (4/5): 95-99), and used to complete the evaluation of hypoglycemic effect in animals (this model could simulate pancreatic islet β-cell damage state of type I and type II diabetics). […] Conditions of experimental feeding: ICR mice (20±2 g), aged 6 weeks, purchased from Zhejiang Academy of Medical Sciences, and subjected to experimental feeding after 7 days of preliminary feeding. […] The experimental feed was mouse growth-stable feed (GB […]), and the daily feeding and management of the animals were under the responsibility of the animal security department, which provided the animals with sufficient padding and fresh drinking water daily. Experimental grouping: 15 male mice were randomly selected as the normal control group. […] Gavage doses: the gavage dose was 0.02 g/kg per day for the limonin group, the gavage dose was 0.02 g/kg per day for the isolimonic acid group, the gavage dose was 0.02 g/kg per day for the limonin 17-β-D-glucopyranoside group, the gavage dose of metformin was 0.02 g/kg per day for the metformin group, limonin at a dose of 0.01 g/kg and metformin at a dose of 0.01 g/kg were simultaneously gavaged per day for the limonin/metformin combination group, isolimonic acid at a dose of 0.01 g/kg and metformin at a dose of 0.01 g/kg were simultaneously gavaged per day for the isolimonic acid/metformin combination group, limonin 17-β-D-glucopyranoside at a dose of 0.01 g/kg and metformin at a dose of 0.01 g/kg were simultaneously gavaged per day for the limonin 17-β-D-glucopyranoside/metformin combination group, isolimonic acid 17-β-D-glucopyranoside at a dose of 0.01 g/kg and metformin at a dose of 0.01 g/kg were simultaneously gavaged per day for the isolimonic acid 17-β-D-glucopyranoside/metformin combination group, the gavage volume was 10 mL/kg, and the normal group and the model group were administrated with 10 mL/kg of distilled water. […] SPSS 16.0 software was used for statistical analysis. The data were expressed as mean and standard deviation. The data before and after were analyzed by t-test, and P<0.05 was considered statistically significant.

For another experiment, the system named is ICR mice. The experiment is described as follows: Body weight, triglycerides and total cholesterol in obesity mouse model (Example 6). Conditions: high-fat feed ICR mice, single administration 0.1 g/kg per day by gavage, two weeks. From the text:
Effects of a Limonoid Compound, Metformin or a Combination Thereof on Body Weight, Triglycerides, and Total Cholesterol in an Obesity Mouse Model
In this example, ICR mice were used to complete the experiment for evaluation of lipid lowering and weight loss in animals (body weight, serum cholesterol, and serum triglycerides).
In this example, the limonoid compound was nomilin, and a metformin single administration group, nomilin single administration group, and metformin/nomilin combination administration groups (dose A and B groups) were set, respectively.
Conditions of experimental feeding: ICR mice, purchased from the Animal Center of Zhejiang Academy of Medical Sciences, half male and half female, body weight (20±2 g), fed with basic feed provided by the Animal Center of Zhejiang Medical Academy. It should be noted that the conditions for raising the mice were as follows: the temperature was 23±1° C., the humidity was 55±10%, the lights were turned on between 7 am and 7 pm (the lights were turned off at other time), and the mice were allowed to access to water and feed freely. The daily feeding and management of the animals were under the responsibility of the animal security department, which provided the animals with sufficient padding and fresh drinking water daily.
The ICR mice were randomly divided into the normal group and the high-fat feed group, according to body weight. The normal group was fed with ordinary feed from the beginning to the end of the experiment.
Gavage dose: nomilin at a dose of 0.1 g/kg was gavaged per day for the nomilin group, metformin at a dose of 0.1 g/kg was gavaged per day for the metformin group, nomilin at a dose of 0.05 g/kg and metformin at a dose of 0.05 g/kg were simultaneously gavaged per day for the combination dose group A, nomilin at a dose of 0.1 g/kg and metformin at a dose of 0.1 g/kg were simultaneously gavaged per day for the combination dose group B, the gavage volume was 10 mL/kg, and the normal group and the model group were administrated with 10 mL/kg of distilled water. Two weeks later, the mice were weighed, blood sampled from orbital cavity, measured to determine serum total cholesterol and triglyceride levels, and the average values of each group were obtained. SPSS 16.0 software was used for statistical analysis. The data were expressed as mean and standard deviation. The data before and after were analyzed by t-test, and P<0.05 was considered statistically significant.

For experiment [1], the system named is db/db mice. Kind of experiment: Blood glucose and insulin in mouse model of type II diabetes (Example 4). Conditions: single administration 0.2 g/kg per day by gavage, two weeks; for Insulin: serum, Elisa. An excerpt:
Effects of a Limonoid Compound, Metformin or a Combination Thereof on Blood Glucose and Insulin in a Mouse Model of Type II Diabetes
In the present embodiment, the limonoid compound selected nomilin, deacetylnomilin, nomilin acid, deactylnomilin 17-β-D-glucopyranoside, and a nomilin single administration group, deacetylnomilin single administration group, nomilin acid single administered group, deactylnomilin 17-β-D-glucopyranoside single administration group, and combination thereof with metformin administration groups were set, respectively.
Conditions for experimental feeding: as type II diabetes model mice, 6-week-old SPF-grade db/db mice were purchased from the Nanjing Model Biology Institute, and subjected to experimental feeding after 7 days of preliminary feeding. It should be noted that the conditions for raising the mice were as follows: the temperature was 23±1° C., the humidity was 55±10%, the lights were turned on between 7 am and 7 pm (the lights were turned off at other time), and the mice were allowed to access to water and feed freely. The experimental feed was mouse growth-stable feed (GB M2118), and the daily feeding and management of the animals were under the responsibility of the animal security department, which provided the animals with sufficient padding and fresh drinking water daily.
Experimental grouping: male db/db mice (20±2 g) were selected, 18 male mice in each group were tested, and drinking bottles were sterilized weekly. The experimental groups included the normal control group (db/m, n=18), the model group (db/db, n=18), the nomilin group (db/db, n=18), the deacetylnomilin group (db/db, n=18), the nomilin acid group (db/db, n=18), the deactylnomilin 17-β-D-glucopyranoside group (db/db, n=18), the metformin group (db/db, n=18), the nomilin/metformin combination group (db/db, n=18), the deacetylnomilin/metformin combination group (db/db, n=18), the nomilin acid/metformin combination group (db/db, n=18), the deactylnomilin 17-β-D-glucopyranoside/combination group (db/db, n=18).
Gavage doses: nomilin at a dose of 0.2 g/kg was gavaged per day for the nomilin group, deacetylnomilin at a dose of 0.2 g/kg was gavaged per day for the deacetylnomilin group, nomilin acid at a dose of 0.2 g/kg was gavaged per day for the nomilin acid group, deacetylnomilin […] at a dose of 0.2 g/kg was gavaged per day for the deactylnomilin glucopyranoside group, metformin at a dose of 0.2 g/kg was gavaged per day for the metformin group, nomilin at a dose of 0.1 g/kg and metformin at a dose of 0.1 g/kg were simultaneously gavaged per day for the nomilin/metformin combination group, nomilin acid at a dose of 0.1 g/kg and metformin at a dose of 0.1 g/kg were simultaneously gavaged per day for the nomilin acid/metformin combination group, deacetylnomilin at a dose of 0.1 g/kg and metformin at a dose of 0.1 g/kg were simultaneously gavaged per day for the deacetylnomilin/metformin combination group, deactylnomilin 17-β-D-glucopyranoside at a dose of 0.1 g/kg and metformin at a dose of 0.1 g/kg were simultaneously gavaged per day for the deactylnomilin 17-β-D-glucopyranoside/metformin combination group, the gavage volume was 10 mL/kg, and the normal group and the model group were administrated with 10 mL/kg of distilled water. Two weeks later, the blood glucose values were measured by tail trimming method (Johnson's blood glucose meter) 1 h after the last administration, and serum insulin levels were measured with blood collected from orbital cavity by enzyme-linked immunosorbent assay (Elisa), and the average of each group was obtained. SPSS 16.0 software was used for statistical analysis. The data were expressed as mean and standard deviation. The data before and after were analyzed by t-test, and P<0.05 was considered statistically significant.

In experiment [2] the test system is db/db mice. The experiment is described as follows: Blood glucose and leptin in mouse model of type II diabetes (Example 2). Conditions: single administration 0.04 g/kg per day by gavage, two weeks; for Leptin: serum, Elisa; for Blood glucose value: 1 h after last administration. An excerpt: Effects of a Limonoid Compound, Metformin or a Combination Thereof on Blood Glucose and Leptin in a Mouse Model of Type II Diabetes In the present example, db/db mice (line name BKS.Cg-Dock7^m+/+ Lepr^db/Nju) were used to perform hypoglycemic efficacy evaluation test of animals (blood glucose level and leptin). […] Conditions for experimental feeding: as type II diabetes model mice, 6-week-old SPF-grade db/db mice were purchased from the Nanjing Model Biology Institute, and subjected to experimental feeding after 7 days of preliminary feeding. […] The experimental feed was mouse growth-stable feed (GB […]), and the daily feeding and management of the animals were under the responsibility of the animal security department, which provided the animals with sufficient padding and fresh drinking water daily. Experimental grouping: male db/db mice (20±2 g) were selected, and 18 male mice in each group were tested. […] Gavage doses: obacunone at a dose of 0.04 g/kg was gavaged per day for the obacunone group, isoobacunoic acid at a dose of 0.04 g/kg was gavaged per day for the isoobacunoic acid group, obacunone 17-β-D-glucopynoside at a dose of 0.04 g/kg was gavaged per day for the obacunone 17-β-D-glucopynoside group, metformin at a dose of 0.04 g/kg was gavaged per day for the metformin group, obacunone at a dose of 0.02 g/kg and metformin at a dose of 0.02 g/kg were simultaneously gavaged per day for the obacunone/metformin combination group, isoobacunoic acid at a dose of 0.02 g/kg and metformin at a dose of 0.02 g/kg were simultaneously gavaged per day for the isoobacunoic acid/metformin combination group, obacunone 17-β-D-glucopynoside at a dose of 0.02 g/kg and metformin at a dose of 0.02 g/kg were simultaneously gavaged per day for the obacunone 17-β-D-glucopynoside/metformin combination group, the gavage volume was 10 mL/kg, and the normal group and the model group were administrated with 10 mL/kg of distilled water. […] The data were expressed as mean and standard deviation. The data before and after were analyzed by t-test, and P<0.05 was considered statistically significant.

This note sets out measurements from patent publication US11679097B2, “Combination product containing limonoid compound and biguanide compound” (ZHEJIANG YANGSHENGTANG INSTITUTE OF NATURAL MEDICATION CO., …, priority 2017, dated 2023).

Turning to isolimonic acid, the Blood glucose value in the experiment on STZ mice amounted to 18.2 ± 3.1 mmol/L. Consider `CC(=O)O[C@H]1CC(=O)OC(C)(C)[C@@H]2CC(=O)[C@]3(C)[C@H](CC[C@@]4(C)[C@H](c5ccoc5)OC(=O)[C@H]5O[C@]543)[C@@]12C` [Nomilin, nomilin], for which the “Body weight gaining rate” value with ICR mice stood at 6.17%. In addition, in the experiment on ICR mice (serum), the Total cholesterol was found to be 3.09 ± 0.16 mmol/L and the Triglycerides is given as 1.08 ± 0.33 mmol/L. Besides, the Insulin with db/db mice [1] came out at 8.82 ± 3.42 pg/mL. As to `CC1(C)O[C@@H](CC(=O)O)[C@]2(C)[C@H]3CC[C@@]4(C)[C@H](c5ccoc5)OC(=O)[C@H]5O[C@]54[C@]3(C)C(=O)C[C@@H]12` [Isoobacunoic acid, isoobacunoic acid], in the experiment with db/db mice [2], the Leptin is 27.68 ± 3.25 pg/mL and the Blood glucose value is recorded as 14.66 ± 3.1 mmol/L. Consider `CC1(C)OC(=O)C[C@H](O)[C@]2(C)[C@H]3CC[C@@]4(C)[C@H](c5ccoc5)OC(=O)[C@H]5O[C@]54[C@]3(C)C(=O)C[C@@H]12` [deacetylnomilin], for which the Insulin in the experiment on db/db mice [1] is 8.59 ± 2.61 pg/mL. As for `CC1(C)O[C@H]2CC(=O)OC[C@]23[C@H]2CC[C@@]4(C)[C@H](c5ccoc5)OC(=O)[C@H]5O[C@]54[C@]2(C)C(=O)C[C@@H]13` [Limonin, limonin], the Blood glucose value in the experiment on STZ mice is reported as 19.5 ± 1.8 mmol/L. For `CC1(C)OC(=O)C=C[C@]2(C)[C@H]3CC[C@@]4(C)[C@H](c5ccoc5)OC(=O)[C@H]5O[C@]54[C@]3(C)C(=O)C[C@@H]12` [Obacunone, obacunone], in the experiment on db/db mice [2], the Leptin stood at 25.99 ± 3.92 pg/mL and the Blood glucose value was 12.71 ± 2.8 mmol/L. With nomilin acid, the Blood glucose value in the experiment with db/db mice [1] (1 h after last administration) is 11.0 ± 4.1 mmol/L. For `CC1(C)O[C@H]2CC(=O)OC[C@]23[C@H]2CC[C@@](C)([C@@H](O[C@@H]4O[C@H](CO)[C@@H](O)[C@H](O)[C@H]4O)c4ccoc4)[C@@]4(O[C@@H]4C(=O)O)[C@]2(C)C(=O)C[C@@H]13` [Limonin 17-β-D-glucopyranoside, limonin 17-β-D-glucopyranoside], in the experiment on STZ mice, the Blood glucose value is 18.9 ± 2.2 mmol/L. Still for that read-out and setting: the value for isolimonic acid 17-β-D-glucopyranoside was 17.9 ± 2.8 mmol/L. For obacunone 17-β-D-glucopynoside, in the experiment with db/db mice [2], the Leptin turned out to be 28.55 ± 4.00 pg/mL and the Blood glucose value came to 13.67 ± 2.9 mmol/L.
